This note sets out measurements from ChEMBL document CHEMBL1201862, “PubChem BioAssay data set” (2004).

Active and inactive are the calls of the source.

Assay [1] addresses Disintegrin and metalloproteinase domain-containing protein 17 (Homo sapiens, UniProt P78536). In words: inhibition of ADAM17 substrate cleavage – biochemical, quenched FRET substrate, counter-screen for ADAM10 exosite inhibitor project, dose response (AID 743253).
Assay [2] can be described thus: potency of ADAM10 substrate cleavage blockers – biochemical, QFRET, dose response (AID 743254).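 Note: ADAM10 enzyme with the DM2 quenched FRET peptide as substrate; EDANS fluorescence gain as the protease cuts the substrate; inhibitor potency against ADAM10 proteolytic activity.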
A short description of assay [3]: blockers of bursicon-stimulated LGR2 cAMP reporter – cell-based, HEK293, CRE-luciferase reporter, cherry pick, set 2, dose response (AID 743343).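 Note: transfected cells were stimulated with diluted bursicon conditioned medium after compound addition.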 It is filed as functional.
Assay [4] is described as follows: HIV-1 AD8 envelope cell-cell fusion blockers – cherry-pick, dose response (AID 652062).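 Note: luciferase signal from cell-cell fusion driven by HIV-1 clade B AD8 Env; potency is for inhibitors of fusion seen as a drop in luminescence.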 It is filed as functional, cell-based.
Assay [5] in a line: blockade of melanocortin 4 receptor signaling – cell-based, plate reader, cherry pick, counter-screen for LGR2 antagonist project, dose response (AID 743444).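 Note: transfected HEK 293 cells stimulated with alpha-MSH peptide; potency of inhibitors of the alpha-MSH evoked signal.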 The format is functional.
Assay [6] can be described thus: blockers of HIV-1 envelope-mediated cell-cell fusion – cherry-pick, dose response (AID 652057). The format is functional, cell-based.
The nature of assay [7]: off-target signal loss in HeLa-CEM21 co-culture – HeLa F-luc CTL cells, cherry-picked, counter-screen for HIV-1 Env fusion inhibitor project, dose response (AID 652040).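 Note: potency for signal decrease marking cytotoxic or nonspecific inhibition.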 It is filed as functional, cell-based.
Assay [8] can be described thus: Luminescence-based cell-based high throughput dose response assay to identify activators of the DAF-12 from the parasite S. stercoralis (ssDAF-12). It is filed as functional.
Assay [9] deals with T1, Oxysterols receptor LXR-beta (Homo sapiens, UniProt P55055).
T1 sequence (P55055 whole entry): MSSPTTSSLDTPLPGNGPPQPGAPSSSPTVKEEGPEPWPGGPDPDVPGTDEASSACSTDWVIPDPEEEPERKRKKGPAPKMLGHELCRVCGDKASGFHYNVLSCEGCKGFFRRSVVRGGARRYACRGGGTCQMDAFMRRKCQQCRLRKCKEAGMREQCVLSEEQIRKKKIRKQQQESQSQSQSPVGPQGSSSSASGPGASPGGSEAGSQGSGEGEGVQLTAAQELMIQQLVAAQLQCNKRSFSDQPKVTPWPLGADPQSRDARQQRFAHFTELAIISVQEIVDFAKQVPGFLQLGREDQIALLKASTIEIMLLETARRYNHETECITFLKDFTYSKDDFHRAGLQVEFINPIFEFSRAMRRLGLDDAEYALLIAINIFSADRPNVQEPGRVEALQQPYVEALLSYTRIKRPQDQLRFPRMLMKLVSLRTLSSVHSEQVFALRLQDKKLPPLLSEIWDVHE
As to the kind of experiment: LXR agonists, Gal4 luciferase reporter, dose response, counter-screen for ssDAF-12 agonist project, cell-based, luminescence, HEK293, S. stercoralis campaign (AID 720737). It is filed as functional. Conditions: read-out: IC50 (the source's name).

Assay [10] concerns the target T2, Sentrin-specific protease 8 (Homo sapiens, UniProt Q96LD8).
T2 sequence (Q96LD8 whole entry): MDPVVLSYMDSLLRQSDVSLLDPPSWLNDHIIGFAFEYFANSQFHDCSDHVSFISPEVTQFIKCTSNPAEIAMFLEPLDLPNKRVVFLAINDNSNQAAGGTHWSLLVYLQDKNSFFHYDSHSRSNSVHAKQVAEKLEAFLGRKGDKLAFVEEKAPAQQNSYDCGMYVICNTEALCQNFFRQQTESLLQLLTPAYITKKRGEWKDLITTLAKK
It is filed as functional.

In assay [11] the target is T2, Sentrin-specific protease 8. It is filed as functional. The source holds these as a separate data set.
Assay [12] concerns the target T3, Caspase-6 (Homo sapiens, UniProt P55212).
T3 sequence (P55212 whole entry): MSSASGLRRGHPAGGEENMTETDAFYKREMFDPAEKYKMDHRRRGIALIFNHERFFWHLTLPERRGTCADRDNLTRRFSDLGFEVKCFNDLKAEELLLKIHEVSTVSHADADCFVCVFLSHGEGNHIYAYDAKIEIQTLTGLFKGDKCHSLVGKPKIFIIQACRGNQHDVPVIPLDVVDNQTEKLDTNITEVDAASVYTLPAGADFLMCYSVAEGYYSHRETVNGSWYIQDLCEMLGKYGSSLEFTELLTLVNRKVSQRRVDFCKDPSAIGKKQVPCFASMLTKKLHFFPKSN
As to the kind of experiment: inhibition of CASP6 peptide cleavage – biochemical, VEID-R110 fluorescence, cherry-pick, dose response (AID 720632).

A short description of assay [13]: NIH3T3 cell viability loss – ATP luminescence, mouse fibroblasts, counter-screen, dose response (AID 2010).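 Note: cells exposed to compound for about 90 hours before reading.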 It is filed as functional, cell-based.
A short description of assay [14]: Trypanosoma cruzi growth suppression in host cells – NIH3T3 host cells, beta-gal luminescence, confirmation (AID 2044).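 Note: intracellular parasites grown in NIH/3T3 mouse fibroblasts as host cells; luminescent beta-galactosidase reporter signal from transgenic T. cruzi replicating inside host cells; inhibitors lower the luminescence signal.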 It is filed as functional, cell-based.
Assay [15] concerns the target Nonstructural protein 1 (Influenza A virus, UniProt Q194T2). It is filed as functional, Influenza A virus (A/California/07/2009(H1N1)).
In assay [16] the target is Eukaryotic translation initiation factor 4E (Mus musculus, UniProt P63073). In words: blockers of eIF4G binding by eIF4E – biochemical, TR-FRET, dose response (AID 855).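 Note: potency for disrupting eIF4E binding to eIF4GI seen as loss of FRET.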 The format is functional.
For assay [17], the target named is T4, Rac GTPase-activating protein 1 (Homo sapiens, UniProt Q9H0H5).
T4 sequence (Q9H0H5 whole entry): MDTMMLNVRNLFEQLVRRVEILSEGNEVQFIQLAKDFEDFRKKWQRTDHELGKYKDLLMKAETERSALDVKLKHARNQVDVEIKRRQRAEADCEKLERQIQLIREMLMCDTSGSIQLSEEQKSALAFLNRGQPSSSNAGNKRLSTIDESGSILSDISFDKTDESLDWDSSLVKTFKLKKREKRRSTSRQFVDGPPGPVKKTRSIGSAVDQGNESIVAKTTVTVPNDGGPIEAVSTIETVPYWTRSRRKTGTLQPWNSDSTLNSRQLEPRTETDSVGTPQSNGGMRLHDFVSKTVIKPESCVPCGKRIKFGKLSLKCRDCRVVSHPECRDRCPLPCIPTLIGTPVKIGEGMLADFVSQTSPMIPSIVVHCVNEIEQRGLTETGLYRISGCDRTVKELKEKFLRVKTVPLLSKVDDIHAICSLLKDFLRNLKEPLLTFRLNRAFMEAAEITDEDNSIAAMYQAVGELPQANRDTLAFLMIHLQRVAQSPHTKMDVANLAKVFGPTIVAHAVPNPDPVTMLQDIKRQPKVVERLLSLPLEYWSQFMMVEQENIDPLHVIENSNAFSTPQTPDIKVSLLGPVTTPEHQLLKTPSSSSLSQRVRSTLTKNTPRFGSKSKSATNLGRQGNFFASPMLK
As to the kind of experiment: blockers of MgcRacGAP-driven Rac1 GTP hydrolysis – biochemical, ADP Hunter fluorescence, primary and confirmatory, confirmation (AID 624330). It is filed as functional.

The target of assay [18] is T5, Histone-lysine N-methyltransferase NSD2 (Homo sapiens, UniProt O96028).
T5 sequence (O96028 whole entry): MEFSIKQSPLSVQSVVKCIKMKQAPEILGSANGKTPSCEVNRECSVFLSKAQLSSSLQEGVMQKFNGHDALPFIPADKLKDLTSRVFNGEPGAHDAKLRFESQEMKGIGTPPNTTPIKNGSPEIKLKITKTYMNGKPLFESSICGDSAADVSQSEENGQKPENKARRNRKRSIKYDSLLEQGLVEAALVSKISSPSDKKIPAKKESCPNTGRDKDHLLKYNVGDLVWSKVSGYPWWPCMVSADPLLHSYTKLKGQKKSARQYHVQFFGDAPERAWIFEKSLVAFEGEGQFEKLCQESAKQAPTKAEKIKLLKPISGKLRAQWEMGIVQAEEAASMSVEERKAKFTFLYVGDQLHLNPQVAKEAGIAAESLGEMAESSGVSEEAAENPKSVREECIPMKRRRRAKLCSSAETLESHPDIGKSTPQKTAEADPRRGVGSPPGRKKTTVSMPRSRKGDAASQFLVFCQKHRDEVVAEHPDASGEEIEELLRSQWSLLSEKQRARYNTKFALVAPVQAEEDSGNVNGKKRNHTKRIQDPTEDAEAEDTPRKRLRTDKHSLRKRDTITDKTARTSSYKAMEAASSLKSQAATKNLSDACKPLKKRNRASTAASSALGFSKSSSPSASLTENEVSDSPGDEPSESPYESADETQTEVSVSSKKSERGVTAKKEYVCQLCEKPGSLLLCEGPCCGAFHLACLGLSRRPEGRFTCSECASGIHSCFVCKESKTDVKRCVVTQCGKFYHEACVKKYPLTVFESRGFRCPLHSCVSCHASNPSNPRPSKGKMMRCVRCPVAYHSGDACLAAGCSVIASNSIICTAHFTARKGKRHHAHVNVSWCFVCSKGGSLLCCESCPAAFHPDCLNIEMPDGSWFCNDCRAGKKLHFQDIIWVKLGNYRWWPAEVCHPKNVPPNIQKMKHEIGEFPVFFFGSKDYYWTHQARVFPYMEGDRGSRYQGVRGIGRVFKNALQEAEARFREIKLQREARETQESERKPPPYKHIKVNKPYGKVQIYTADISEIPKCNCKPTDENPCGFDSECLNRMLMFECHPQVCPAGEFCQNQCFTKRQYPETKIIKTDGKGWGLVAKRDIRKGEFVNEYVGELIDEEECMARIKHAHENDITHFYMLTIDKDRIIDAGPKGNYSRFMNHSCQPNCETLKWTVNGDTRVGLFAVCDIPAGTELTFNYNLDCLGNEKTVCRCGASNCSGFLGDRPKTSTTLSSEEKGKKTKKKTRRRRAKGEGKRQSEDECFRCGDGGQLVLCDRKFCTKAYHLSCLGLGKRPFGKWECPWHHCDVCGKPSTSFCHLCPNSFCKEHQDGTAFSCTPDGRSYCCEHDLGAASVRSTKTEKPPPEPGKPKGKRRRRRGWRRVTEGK
The format is biochemical.

The target of assay [19] is Induced myeloid leukemia cell differentiation protein Mcl-1 (Homo sapiens, UniProt Q07820). The format is functional.
The target in assay [20] is Large T antigen (Simian virus 40, UniProt P03070). The format is functional, Betapolyomavirus macacae.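 Note: Confirmatory-stage PubChem screen for compounds that inhibit SV40 T antigen.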
Assay [21] can be described thus: viability loss in Vero cells – cytotoxicity control for Vif-APOBEC3G degradation inhibitor project, dose response (AID 1117358). The note with it: Vero. The format is functional.
The nature of assay [22]: general mammalian cell viability loss – inhibitor set, cherry-pick, set 2, cytotoxicity control for miR-122 modulator project, dose response (AID 720697). The format is functional, cell-based.

Disintegrin and metalloproteinase domain-containing protein 17, sequence (P78536 whole entry, the tested form may be a part): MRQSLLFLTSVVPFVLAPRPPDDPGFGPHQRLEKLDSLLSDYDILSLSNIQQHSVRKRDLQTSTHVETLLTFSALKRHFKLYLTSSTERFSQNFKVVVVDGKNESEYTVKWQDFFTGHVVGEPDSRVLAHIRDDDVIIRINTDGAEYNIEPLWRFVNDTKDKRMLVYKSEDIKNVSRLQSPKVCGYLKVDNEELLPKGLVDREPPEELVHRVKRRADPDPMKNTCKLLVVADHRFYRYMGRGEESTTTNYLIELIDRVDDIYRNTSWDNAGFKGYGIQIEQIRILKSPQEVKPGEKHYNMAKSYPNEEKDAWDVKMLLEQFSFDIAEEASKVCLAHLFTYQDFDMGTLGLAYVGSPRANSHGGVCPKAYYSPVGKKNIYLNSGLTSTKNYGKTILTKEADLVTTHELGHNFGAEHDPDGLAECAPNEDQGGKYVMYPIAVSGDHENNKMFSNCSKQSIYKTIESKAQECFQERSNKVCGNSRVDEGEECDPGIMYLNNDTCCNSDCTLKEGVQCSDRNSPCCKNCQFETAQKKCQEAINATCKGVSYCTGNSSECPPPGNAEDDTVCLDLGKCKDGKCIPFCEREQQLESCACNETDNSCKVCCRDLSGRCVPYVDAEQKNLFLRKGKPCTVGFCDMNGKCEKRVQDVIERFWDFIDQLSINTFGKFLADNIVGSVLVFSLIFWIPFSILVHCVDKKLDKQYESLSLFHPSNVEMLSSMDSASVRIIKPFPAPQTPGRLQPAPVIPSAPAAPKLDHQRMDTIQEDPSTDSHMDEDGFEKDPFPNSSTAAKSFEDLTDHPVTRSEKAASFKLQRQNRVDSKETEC
Large T antigen, sequence (P03070 whole entry): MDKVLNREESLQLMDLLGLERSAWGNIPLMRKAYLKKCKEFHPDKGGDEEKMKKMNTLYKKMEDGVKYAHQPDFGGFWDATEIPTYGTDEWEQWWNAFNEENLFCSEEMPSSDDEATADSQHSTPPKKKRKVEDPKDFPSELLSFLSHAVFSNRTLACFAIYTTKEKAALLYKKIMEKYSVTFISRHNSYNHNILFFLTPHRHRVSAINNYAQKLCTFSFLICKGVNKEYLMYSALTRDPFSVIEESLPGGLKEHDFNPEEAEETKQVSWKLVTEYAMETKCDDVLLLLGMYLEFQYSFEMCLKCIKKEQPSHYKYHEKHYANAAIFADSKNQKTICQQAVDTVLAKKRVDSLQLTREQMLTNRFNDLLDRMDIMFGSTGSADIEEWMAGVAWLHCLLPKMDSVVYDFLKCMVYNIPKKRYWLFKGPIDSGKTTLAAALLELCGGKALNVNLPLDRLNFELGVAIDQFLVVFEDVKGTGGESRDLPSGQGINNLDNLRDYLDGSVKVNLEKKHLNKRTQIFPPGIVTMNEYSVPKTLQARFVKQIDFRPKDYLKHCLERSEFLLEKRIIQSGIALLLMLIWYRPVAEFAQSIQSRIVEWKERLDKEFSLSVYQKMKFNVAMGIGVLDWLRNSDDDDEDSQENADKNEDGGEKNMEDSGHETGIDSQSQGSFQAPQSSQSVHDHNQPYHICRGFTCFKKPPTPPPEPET
Induced myeloid leukemia cell differentiation protein Mcl-1, sequence (Q07820 whole entry): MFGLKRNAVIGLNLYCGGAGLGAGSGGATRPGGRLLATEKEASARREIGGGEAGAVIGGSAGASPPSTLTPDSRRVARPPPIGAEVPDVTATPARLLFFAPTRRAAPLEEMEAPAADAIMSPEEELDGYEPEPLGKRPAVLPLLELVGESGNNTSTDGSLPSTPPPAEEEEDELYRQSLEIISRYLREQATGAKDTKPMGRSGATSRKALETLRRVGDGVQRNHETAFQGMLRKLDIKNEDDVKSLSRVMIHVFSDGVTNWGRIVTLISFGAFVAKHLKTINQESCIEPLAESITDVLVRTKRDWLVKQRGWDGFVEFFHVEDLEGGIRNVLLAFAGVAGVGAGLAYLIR
Nonstructural protein 1, sequence (Q194T2 whole entry): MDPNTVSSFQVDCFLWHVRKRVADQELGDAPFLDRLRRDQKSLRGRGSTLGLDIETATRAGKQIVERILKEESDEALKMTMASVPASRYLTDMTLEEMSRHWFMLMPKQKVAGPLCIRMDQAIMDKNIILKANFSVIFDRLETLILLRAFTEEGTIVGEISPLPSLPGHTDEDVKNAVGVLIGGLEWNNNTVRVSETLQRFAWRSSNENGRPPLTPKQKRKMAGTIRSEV
Eukaryotic translation initiation factor 4E, sequence (P63073 whole entry): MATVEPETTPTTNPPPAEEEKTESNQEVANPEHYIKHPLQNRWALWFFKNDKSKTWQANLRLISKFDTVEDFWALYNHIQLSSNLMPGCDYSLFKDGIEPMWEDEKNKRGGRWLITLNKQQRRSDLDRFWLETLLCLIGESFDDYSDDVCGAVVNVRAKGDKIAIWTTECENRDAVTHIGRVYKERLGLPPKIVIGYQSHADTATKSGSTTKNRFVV

Take `COc1ccc(S(=O)(=O)N(C)C[C@@H]2OCCCC[C@H](C)Oc3ccc(NC(=O)Nc4ccc(C(F)(F)F)cc4)cc3C(=O)N([C@H](C)CO)C[C@H]2C)cc1`: the IC50 in assay [1] and in [2] was > 69.5 µM (inactive) throughout.
Regarding `Cc1cc(C(=O)CN2C(=O)c3ccccc3S2(=O)=O)c(C)n1C(C)C`, the concentration at half-maximal activity (AC50) in assay [3] is 2.48 µM (active); in assay [4], 7.58 µM (active); in assay [5], 2.08 µM (active); in [6] it was 3.93 µM (active); in assay [7] it was 3.75 µM (active).
As for `Cc1ccc(Nc2nc(N)nc(CSc3nc4ccccc4s3)n2)cc1`, the IC50 is > 69.5 µM (inactive) in assay [1] and > 7.72 µM (active) in assay [2].
As to `CC1CCC(NC(=O)c2ccc(S(C)(=O)=O)cc2)CC1` (stereo not drawn), the IC50 in assay [8] was > 67.5 µM (inactive). Besides, the EC50 in [9] was > 67.5 µM (inactive).
Take `O=C1Cc2ccccc2C(=O)N1c1ccc(F)cc1Cl`: the figures for the IC50 in assay [10] and in [11] were > 100 µM (inactive) and 4.41 µM (active), respectively. For the same molecule, the concentration at half-maximal activity (AC50) in [12] is 20.4 µM (active).
Regarding `Cc1ccc(C(=O)Nc2ccccc2-c2ccccc2)cc1S(=O)(=O)Nc1cccc(C)c1C`, the IC50 in [1] and in assay [2] was > 69.5 µM (inactive) in each case. Further, the values for the EC50 in assay [13] and in assay [14] were > 60 µM (not active) and 1.57 µM (active), respectively.
For the molecule `Nc1nonc1OCCCCOc1nonc1N`, the IC50 in assay [8] was > 67.6 µM (inactive). The EC50 in assay [9] is > 67.6 µM (inactive).
For the molecule `CN(C)c1ccc(/N=c2/sc3ccccc3n2C)cc1`, the half-maximal inhibitory concentration (IC50) in assay [15] is 23.9 µM (active); in assay [16], > 64 µM (inactive); in assay [17], 18.9 µM (active); in assay [19], 40.2 µM (active); in assay [20], 11.4 µM (active). The AC50 in assay [18] is 10.4 µM (active).
Regarding `CC1Cc2ccccc2N1C(=O)COC(=O)c1ccc([N+](=O)[O-])o1` (stereo not drawn), the IC50 in assay [10] is 3.78 µM (active); in assay [11], 8.67 µM (active). The half-maximal activity concentration (AC50) in assay [12] was 13 µM (active).
For `Cc1ccc(NC(=O)C2CC(=O)Nc3nncn32)cc1` (stereo not drawn), in assay [8], the IC50 is > 67.6 µM (inactive). Also, in assay [9], the EC50 was > 67.6 µM (inactive).
Consider `COc1ccc(CCNC(=O)CSc2nc(-c3ccco3)cc(C(F)(F)F)n2)cc1`, for which, in assay [21], the CC50 was > 40 µM (active).
Turning to `CCCNC(=O)Nc1ccc2c(c1)C(=O)N(C)[C@@H]1CC[C@H](CC(=O)O)O[C@H]1CO2`, in [22], the AC50 was 1.82 µM (active).
